Our source for the EC50 values is US20130310427A1, “INHIBITORS OF HCV NS5A PROTEIN” (PRESIDIO PHARMACEUTICALS, INC., priority 2010, published 2013).

Some results are limits rather than exact numbers.

This assay has as its system bicistronic genotype 1b replicon in Huh 7 cells (1b_Huh-Luc/Neo-ET cell line). Put plainly: HCV replicon assay, luciferase enzyme activity readout. The class given is cell-based. To be noted: Hepatitis C virus, 1b_Huh-Luc/Neo-ET replicon cells, 72 h incubation, Bright-Glo luciferase readout, EC50 ranges, read-out: Inhibition of HCV genotype 1b. As for the experimental part:
Biological activity of the compounds of the invention was determined using an HCV replicon assay. The 1b_Huh-Luc/Neo-ET cell line persistently expressing a bicistronic genotype 1b replicon in Huh 7 cells was obtained from ReBLikon GMBH. This cell line was used to test compound inhibition using luciferase enzyme activity readout as a measurement of compound inhibition of replicon levels.
On Day 1 (the day after plating), each compound is added in triplicate to the cells. Plates incubated for 72 h prior to running the luciferase assay. Enzyme activity was measured using a Bright-Glo Kit (cat. number E2620) manufactured by Promega Corporation. The following equation was used to generate a percent control value for each compound.
% Control=(Average Compound Value/Average Control)*100
The EC50 value was determined using GraphPad Prism and the following equation:
Y=Bottom+(Top−Bottom)/(1+10̂((Log IC50−X)*HillSlope))
EC50 values of compounds are repeated several times in the replicon assay.
(In general: Replicon systems follow genome replication, usually without infectious particles.)
Regarding `COC(=O)N[C@H](C(=O)N1CC(C)=CC1c1ncc(-c2ccc(-c3ccc4cc(-c5cnc([C@@H]6CCCN6C(=O)[C@@H](NC(=O)OC)C(C)C)[nH]5)ccc4c3)cc2)[nH]1)C(C)C` (stereo partly shown) [Compound 101], the EC50 is < 1 nM.
Under `COC(=O)N[C@H](C(=O)N1CC(C)=C[C@H]1c1ncc(-c2ccc(C#Cc3ccc4nc([C@@H]5CCCN5C(=O)[C@@H](NC(=O)OC)C(C)C)[nH]c4c3)cc2)[nH]1)C(C)C` [Compound 102] stands < 1 nM; under `COC(=O)N[C@H](C(=O)N1CC(C)=C[C@H]1c1ncc(-c2ccc(C#Cc3ccc(-c4cnc([C@@H]5CCCN5C(=O)[C@@H](NC(=O)OC)C(C)C)[nH]4)cc3)cc2)[nH]1)C(C)C` [Compound 103], < 1 nM.
With `COC(=O)N[C@H](C(=O)N1CC(C)=C[C@H]1c1nc2ccc(C#Cc3ccc(-c4cnc([C@@H]5CCCN5C(=O)[C@@H](NC(=O)OC)C(C)C)[nH]4)cc3)cc2[nH]1)C(C)C` [Compound 104], the EC50 is < 1 nM.
On to `COC(=O)N[C@H](C(=O)N1CC(C2CC2)=C[C@H]1c1ncc(-c2ccc(-c3ccc4cc(-c5cnc([C@@H]6CCCN6C(=O)[C@@H](NC(=O)OC)C(C)C)[nH]5)ccc4c3)cc2)[nH]1)C(C)C` [Compound 105], for which the EC50 was < 1 nM.
Under `COC(=O)N[C@H](C(=O)N1CC(C2CC2)=C[C@H]1c1ncc(-c2ccc(C#Cc3ccc4nc([C@@H]5CCCN5C(=O)[C@@H](NC(=O)OC)C(C)C)[nH]c4c3)cc2)[nH]1)C(C)C` [Compound 109] stands < 1 nM.
On to `COC(=O)N[C@H](C(=O)N1CC(C2CC2)=C[C@H]1c1ncc(-c2ccc(C#Cc3ccc(-c4cnc([C@@H]5CCCN5C(=O)[C@@H](NC(=O)OC)C(C)C)[nH]4)cc3)cc2)[nH]1)C(C)C` [Compound 110], for which the EC50 is < 1 nM.
Under `COC(=O)N[C@H](C(=O)N1CC(C)=C[C@H]1c1ncc(-c2ccc(C#Cc3ccc(-c4cnc([C@@H]5C=C(C)CN5C(=O)[C@@H](NC(=O)OC)C(C)C)[nH]4)cc3)cc2)[nH]1)C(C)C` [Compound 111] stands < 1 nM; under `COC(=O)N[C@H](C(=O)N1CC(C)=C[C@H]1c1ncc(-c2ccc3c(c2)Oc2ccc(-c4cnc([C@@H]5C=C(C)CN5C(=O)[C@@H](NC(=O)OC)C(C)C)[nH]4)cc2C3(C)C)[nH]1)C(C)C` [Compound 112], < 1 nM.
With `COC(=O)N[C@H](C(=O)N1CC(C)=C[C@H]1c1ncc(-c2ccc3c(=O)c4cc(-c5cnc([C@@H]6C=C(C)CN6C(=O)[C@@H](NC(=O)OC)C(C)C)[nH]5)ccc4oc3c2)[nH]1)C(C)C` [Compound 113] the figure was < 1 nM; with `COC(=O)N[C@H](C(=O)N1CC(C2CC2)=C[C@H]1c1nc2ccc(-c3ccc4cc(-c5cnc([C@@H]6CCCN6C(=O)[C@@H](NC(=O)OC)C(C)C)[nH]5)ccc4c3)cc2[nH]1)C(C)C` [Compound 114], < 1 nM; with `COC(=O)N[C@H](C(=O)N1CC(C2CC2)=C[C@H]1c1nc2ccc(C#Cc3ccc(-c4cnc([C@@H]5CCCN5C(=O)[C@@H](NC(=O)OC)C(C)C)[nH]4)cc3)cc2[nH]1)C(C)C` [Compound 115], < 1 nM.
Under `COC(=O)N[C@H](C(=O)N1CC(C2CC2)=C[C@@H]1c1nc2ccc(C#Cc3ccc(-c4cnc([C@@H]5CCCN5C(=O)[C@@H](NC(=O)OC)C(C)C)[nH]4)cc3)cc2[nH]1)C(C)C` [Compound 116] stands 1 to 9.9 nM; under `COC(=O)N[C@H](C(=O)N1CC(C)=C[C@H]1c1ncc(-c2ccc(C#Cc3ccc4c(ccc5nc([C@@H]6CCCN6C(=O)[C@@H](NC(=O)OC)C(C)C)[nH]c54)c3)cc2)[nH]1)C(C)C` [Compound 118], < 1 nM.
In the case of `COC(=O)N[C@H](C(=O)N1CC(C)=C[C@H]1c1ncc(-c2ccc3cc(-c4ccc5nc([C@@H]6CCCN6C(=O)[C@@H](NC(=O)OC)C(C)C)[nH]c5c4)ccc3c2)[nH]1)C(C)C` [Compound 119], the EC50 was < 1 nM.
With `COC(=O)N[C@H](C(=O)N1CC(C)=C[C@H]1c1ncc(-c2ccc3cc(-c4ccc(-c5cnc([C@@H]6CCCN6C(=O)[C@@H](NC(=O)OC)C(C)C)[nH]5)cc4)ccc3c2)[nH]1)C(C)C` [Compound 120] the figure was < 1 nM.
For `COC(=O)N[C@H](C(=O)N1CC(C)=C[C@H]1c1ncc(-c2ccc(-c3ccc4cc(-c5cnc([C@@H]6C=C(C)CN6C(=O)[C@@H](NC(=O)OC)C(C)C)[nH]5)ccc4c3)cc2)[nH]1)C(C)C` [Compound 121], the EC50 was < 1 nM.
Under `COC(=O)N[C@H](C(=O)N1CC(C)=C[C@H]1c1ncc(-c2ccc3cc(-c4ccc5nc([C@@H]6C=C(C7CC7)CN6C(=O)[C@@H](NC(=O)OC)C(C)C)[nH]c5c4)ccc3c2)[nH]1)C(C)C` [Compound 122] stands < 1 nM.
With `COC(=O)N[C@H](C(=O)N1CC(C)=C[C@H]1c1ncc(-c2ccc3cc(C#Cc4cnc([C@@H]5CCCN5C(=O)[C@@H](NC(=O)OC)C(C)C)[nH]4)ccc3c2)[nH]1)C(C)C` [Compound 123] the figure was < 1 nM.
